Values quoted from earlier work, collected in patent US20060013862A1, “Onychomycosis: a new process for cure” (priority 2004, published 2006).

Test system: onychomycosis
[1] = itraconazole vs terbinafine-treated patients

**Q.** Which Mycological relapse rate [1] does the source give for `CN(C/C=C/C#CC(C)(C)C)Cc1cccc2ccccc12` [terbinafine] here?
**A.** The Mycological relapse rate was 23%.

**Q.** And the clinical relapse rate [1]?
**A.** Its clinical relapse rate is 21%.

**Q.** And the “Mycological cure without second intervention treatment” value (share of treated subjects (34 of 74 terbinafine))?
**A.** The value was 46%.
